# Test system: healthy subjects
# Assay: Phase 1 study: adverse events (TEAEs, MedDRA coded)
# Assay type: in vivo, human
# Method: A Phase 1 randomized, double-blind, placebo-controlled study to evaluate the effect of psilocybin on cognitive and emotional processing as compared to placebo in healthy volunteers was conducted. The study investigated the short-term (Day 7) and long-term (Day 28) effects of moderate (10 mg) and high doses (25 mg) of psilocybin on key domains of cognition, such as episodic memory, attention, working and spatial memory, social cognition and elements of executive function, including cognitive flexibility.
# Each subject was assigned 1 treatment bottle containing 5 capsules packaged in a double-blind fashion, depending on the randomized treatment arm, the bottle contained one of the following: • a. Psilocybin 10 mg: 2×5-mg oral psilocybin capsules plus 3×placebo capsules • b. Psilocybin 25 mg: 5×5-mg oral psilocybin capsules • c. Placebo: 5×placebo capsules
# Each 5-mg oral psilocybin capsules comprised 5 mg crystalline psilocybin in the form or Polymorph A, 12.5 mg of SMCC 50, 79.5 mg of SMCC 90, 1 mg sodium starch glycolate, 1 mg colloidal silicon dioxide, and 1 mg sodium stearyl fumarate
# Adverse events: Throughout the course of the study, all AEs were monitored and recorded. Each AE was classified according to the following criteria: • i. […] Moderate: The AE produces some impairment of functioning, but is not hazardous to the subject's health. • iii. Severe: The AE produces significant impairment of functioning or incapacitation and is a definite hazard to the subject's health.
# Visit 3 (V3): Drug Administration (Day 0): The subject was asked to eat a light breakfast at least two hours prior to coming to the clinic for study drug administration. On Day 0 (V3), the subject underwent the SSTS, had vital signs obtained, medications reviewed, AEs recorded and eligibility reviewed prior to being randomized to study drug. The study drug was administered to up to six subjects simultaneously in individual beds separated by a curtain. The subject was invited to put on eyeshades and headphones, lie down and listen to calming music for the rest of the session (six hours). The subject was supported 1:1 with a chaperone and supervised by the study psychiatrist and lead therapist.
# During administration of psilocybin, each subject received one-on-one support from a trained assisting therapist and each dosing session was supervised by a study psychiatrist and a lead therapist. The study drug was administered simultaneously to up to six participants as a single 5-capsule oral dose (10 mg psilocybin: 2×5-mg psilocybin capsules plus 3×placebo capsules; 25 mg psilocybin: 5×5-mg psilocybin capsules; placebo: 5×placebo capsules). Twenty-five dosing sessions were completed, with up to six participants dosed simultaneously per session. Each session lasted approximately 6 to 8 hours with subjects encouraged to relax and engage in introspection for the duration. After the acute effects of the study drug had subsided, subjects were discharged.
compound,measurement,setting,value
"CN(C)CCc1c[nH]c2cccc(OP(=O)(O)O)c12 [Psilocybin, psilocybin]",Serious adverse events or adverse events that led to withdrawal,"10 mg and 25 mg oral, 12-week study",no serious adverse events or adverse events that led to withdrawal
same,"AEs deemed potentially related to study treatment, % of AEs of the arm",10 mg oral,92.6%
same,"Affect lability, Events",10 mg oral,5
same,"Affect lability, N (%)",10 mg oral,5 (16.7)
same,"Affect lability, worst severity Mild, Events",10 mg oral,3
same,"Affect lability, worst severity Mild, N (%)",10 mg oral,3 (10.0)
same,"Affect lability, worst severity Moderate, Events",10 mg oral,2
same,"Affect lability, worst severity Moderate, N (%)",10 mg oral,2 (6.7)
same,"Affect lability, worst severity Severe, Events",10 mg oral,0
same,"Affect lability, worst severity Severe, N (%)",10 mg oral,0
same,"Any Selected TEAE, Events",10 mg oral,106
same,"Any Selected TEAE, N (%)",10 mg oral,27 (90.0)
same,"Any TEAE leading to death, Events",10 mg oral,0
same,"Any TEAE leading to death, N (%)",10 mg oral,0
same,"Any TEAE leading to study discontinuation, Events",10 mg oral,0
same,"Any TEAE leading to study discontinuation, N (%)",10 mg oral,0
same,"Any TEAE related to study treatment, Events",10 mg oral,188
same,"Any TEAE related to study treatment, N (%)",10 mg oral,29 (96.7)
same,"Any TEAE, Events",10 mg oral,203
same,"Any TEAE, N (%)",10 mg oral,29 (96.7)
same,"Any TEAE, worst severity Mild, Events",10 mg oral,12
same,"Any TEAE, worst severity Mild, N (%)",10 mg oral,6 (20.0)
same,"Any TEAE, worst severity Moderate, Events",10 mg oral,38
same,"Any TEAE, worst severity Moderate, N (%)",10 mg oral,13 (43.3)
same,"Any TEAE, worst severity Severe, Events",10 mg oral,22
same,"Any TEAE, worst severity Severe, N (%)",10 mg oral,10 (33.3)
same,"Any serious TEAE related to study treatment, Events",10 mg oral,0
same,"Any serious TEAE related to study treatment, N (%)",10 mg oral,0
same,"Any serious TEAE, Events",10 mg oral,0
same,"Any serious TEAE, N (%)",10 mg oral,0
same,"Any severe TEAE, Events",10 mg oral,22
same,"Any severe TEAE, N (%)",10 mg oral,10 (33.3)
same,"Change in sustained attention, Events",10 mg oral,2
same,"Change in sustained attention, N (%)",10 mg oral,2 (6.7)
same,"Depressed mood, Events",10 mg oral,1
same,"Depressed mood, N (%)",10 mg oral,1 (3.3)
same,"Dissociative identity disorder, Events",10 mg oral,2
same,"Dissociative identity disorder, N (%)",10 mg oral,1 (3.3)
same,"Emotional disorder, Events",10 mg oral,2
same,"Emotional disorder, N (%)",10 mg oral,2 (6.7)
same,"Emotional disorder, worst severity Mild, Events",10 mg oral,1
same,"Emotional disorder, worst severity Mild, N (%)",10 mg oral,1 (3.3)
same,"Emotional disorder, worst severity Moderate, Events",10 mg oral,1
same,"Emotional disorder, worst severity Moderate, N (%)",10 mg oral,1 (3.3)
same,"Emotional disorder, worst severity Severe, Events",10 mg oral,0
same,"Emotional disorder, worst severity Severe, N (%)",10 mg oral,0
same,"Euphoric mood, Events",10 mg oral,7
same,"Euphoric mood, N (%)",10 mg oral,7 (23.3)
same,"Euphoric mood, worst severity Mild, Events",10 mg oral,0
same,"Euphoric mood, worst severity Mild, N (%)",10 mg oral,0
same,"Euphoric mood, worst severity Moderate, Events",10 mg oral,6
same,"Euphoric mood, worst severity Moderate, N (%)",10 mg oral,6 (20.0)
same,"Euphoric mood, worst severity Severe, Events",10 mg oral,1
same,"Euphoric mood, worst severity Severe, N (%)",10 mg oral,1 (3.3)
same,"Fatigue, Events",10 mg oral,10
same,"Fatigue, N (%)",10 mg oral,9 (30.0)
same,"Fatigue, worst severity Mild, Events",10 mg oral,6
same,"Fatigue, worst severity Mild, N (%)",10 mg oral,6 (20.0)
same,"Fatigue, worst severity Moderate, Events",10 mg oral,3
same,"Fatigue, worst severity Moderate, N (%)",10 mg oral,2 (6.7)
same,"Fatigue, worst severity Severe, Events",10 mg oral,1
same,"Fatigue, worst severity Severe, N (%)",10 mg oral,1 (3.3)
same,"Feeling abnormal, Events",10 mg oral,4
same,"Feeling abnormal, N (%)",10 mg oral,4 (13.3)
same,"Feeling abnormal, worst severity Mild, Events",10 mg oral,3
same,"Feeling abnormal, worst severity Mild, N (%)",10 mg oral,3 (10.0)
same,"Feeling abnormal, worst severity Moderate, Events",10 mg oral,1
same,"Feeling abnormal, worst severity Moderate, N (%)",10 mg oral,1 (3.3)
same,"Feeling abnormal, worst severity Severe, Events",10 mg oral,0
same,"Feeling abnormal, worst severity Severe, N (%)",10 mg oral,0
same,"Feeling of relaxation, Events",10 mg oral,5
same,"Feeling of relaxation, N (%)",10 mg oral,3 (10.0)
same,"Gastrointestinal disorders, Events",10 mg oral,4
same,"Gastrointestinal disorders, N (%)",10 mg oral,4 (13.3)
same,"Gastrointestinal disorders, worst severity Mild, Events",10 mg oral,3
same,"Gastrointestinal disorders, worst severity Mild, N (%)",10 mg oral,3 (10.0)
same,"Gastrointestinal disorders, worst severity Moderate, Events",10 mg oral,1
same,"Gastrointestinal disorders, worst severity Moderate, N (%)",10 mg oral,1 (3.3)
same,"Gastrointestinal disorders, worst severity Severe, Events",10 mg oral,0
same,"Gastrointestinal disorders, worst severity Severe, N (%)",10 mg oral,0
same,"General disorders and administration site conditions, Events",10 mg oral,27
same,"General disorders and administration site conditions, N (%)",10 mg oral,17 (56.7)
same,"General disorders and administration site conditions, worst severity Mild, Events",10 mg oral,17
same,"General disorders and administration site conditions, worst severity Mild, N (%)",10 mg oral,13 (43.3)
same,"General disorders and administration site conditions, worst severity Moderate, Events",10 mg oral,6
same,"General disorders and administration site conditions, worst severity Moderate, N (%)",10 mg oral,3 (10.0)
same,"General disorders and administration site conditions, worst severity Severe, Events",10 mg oral,1
same,"General disorders and administration site conditions, worst severity Severe, N (%)",10 mg oral,1 (3.3)
same,"Hallucination, Events",10 mg oral,3
same,"Hallucination, N (%)",10 mg oral,3 (10.0)
same,"Hallucination, auditory, Events",10 mg oral,4
same,"Hallucination, auditory, N (%)",10 mg oral,4 (13.3)
same,"Hallucination, auditory, worst severity Mild, Events",10 mg oral,1
same,"Hallucination, auditory, worst severity Mild, N (%)",10 mg oral,1 (3.3)
same,"Hallucination, auditory, worst severity Moderate, Events",10 mg oral,1
same,"Hallucination, auditory, worst severity Moderate, N (%)",10 mg oral,1 (3.3)
same,"Hallucination, auditory, worst severity Severe, Events",10 mg oral,2
same,"Hallucination, auditory, worst severity Severe, N (%)",10 mg oral,2 (6.7)
same,"Hallucination, gustatory, Events",10 mg oral,1
same,"Hallucination, gustatory, N (%)",10 mg oral,1 (3.3)
same,"Hallucination, olfactory, Events",10 mg oral,1
same,"Hallucination, olfactory, N (%)",10 mg oral,1 (3.3)
same,"Hallucination, tactile, Events",10 mg oral,2
same,"Hallucination, tactile, N (%)",10 mg oral,2 (6.7)
same,"Hallucination, visual, Events",10 mg oral,20
same,"Hallucination, visual, N (%)",10 mg oral,18 (60.0)
same,"Hallucination, visual, worst severity Mild, Events",10 mg oral,3
same,"Hallucination, visual, worst severity Mild, N (%)",10 mg oral,3 (10.0)
same,"Hallucination, visual, worst severity Moderate, Events",10 mg oral,8
same,"Hallucination, visual, worst severity Moderate, N (%)",10 mg oral,8 (26.7)
same,"Hallucination, visual, worst severity Severe, Events",10 mg oral,7
same,"Hallucination, visual, worst severity Severe, N (%)",10 mg oral,7 (23.3)
same,"Hallucination, worst severity Mild, Events",10 mg oral,0
same,"Hallucination, worst severity Mild, N (%)",10 mg oral,0
same,"Hallucination, worst severity Moderate, Events",10 mg oral,3
same,"Hallucination, worst severity Moderate, N (%)",10 mg oral,3 (10.0)
same,"Hallucination, worst severity Severe, Events",10 mg oral,0
same,"Hallucination, worst severity Severe, N (%)",10 mg oral,0
same,"Headache, Events",10 mg oral,12
same,"Headache, N (%)",10 mg oral,9 (30.0)
same,"Headache, worst severity Mild, Events",10 mg oral,12
same,"Headache, worst severity Mild, N (%)",10 mg oral,9 (30.0)
same,"Headache, worst severity Moderate, Events",10 mg oral,0
same,"Headache, worst severity Moderate, N (%)",10 mg oral,0
same,"Headache, worst severity Severe, Events",10 mg oral,0
same,"Headache, worst severity Severe, N (%)",10 mg oral,0
same,"Hypoaesthesia, Events",10 mg oral,2
same,"Hypoaesthesia, N (%)",10 mg oral,2 (6.7)
same,"Hypoaesthesia, worst severity Mild, Events",10 mg oral,2
same,"Hypoaesthesia, worst severity Mild, N (%)",10 mg oral,2 (6.7)
same,"Hypoaesthesia, worst severity Moderate, Events",10 mg oral,0
